From the NIST ThermoML archive (doi:10.1016/j.fluid.2016.05.032)
Numbers after ± are expanded uncertainties.

Conditions: Liquid, Closed cell (Static) method

Compound | vapor or sublimation pressure (345.15 K) | vapor or sublimation pressure (350.15 K) | vapor or sublimation pressure (355.15 K) | vapor or sublimation pressure (360.15 K) | vapor or sublimation pressure (365.15 K) | vapor or sublimation pressure (320.15 K) | also measured
Cc1ccccc1C [1,2-dimethylbenzene] | 9.182 ± 0.061 kPa | 11.27 ± 0.074 kPa | 13.73 ± 0.081 kPa | 16.62 ± 0.095 kPa | 20 ± 0.11 kPa | – | –
Cc1cccc(C)c1 [1,3-dimethylbenzene] | 11 ± 0.058 kPa | 13.44 ± 0.07 kPa | 16.32 ± 0.083 kPa | 19.68 ± 0.098 kPa | 23.59 ± 0.1 kPa | – | –
Cc1ccc(C)cc1 [1,4-dimethylbenzene] | 11.39 ± 0.061 kPa | 13.9 ± 0.071 kPa | 16.85 ± 0.085 kPa | 20.3 ± 0.095 kPa | 24.3 ± 0.1 kPa | – | –
CC(O)COC(C)COC(C)CO (stereo not given) [2-[2-(2-hydroxypropoxy)propoxy]-1-propanol] | – | 0.039 ± 0.006 kPa | – | – | – | – | vapor or sublimation pressure (357.15 K): 0.063 ± 0.016 kPa; vapor or sublimation pressure (364.15 K): 0.098 ± 0.009 kPa; vapor or sublimation pressure (371.15 K): 0.15 ± 0.018 kPa; vapor or sublimation pressure (378.15 K): 0.224 ± 0.009 kPa
CCc1ccccc1 [ethylbenzene] | – | – | – | – | – | 4.076 ± 0.038 kPa | vapor or sublimation pressure (326.15 K): 5.41 ± 0.047 kPa; vapor or sublimation pressure (332.15 K): 7.093 ± 0.052 kPa; vapor or sublimation pressure (338.15 K): 9.194 ± 0.058 kPa; vapor or sublimation pressure (344.15 K): 11.79 ± 0.071 kPa
Cc1ccccc1 [toluene] | – | – | – | – | – | 10.77 ± 0.052 kPa | vapor or sublimation pressure (315.15 K): 8.622 ± 0.044 kPa; vapor or sublimation pressure (325.15 K): 13.34 ± 0.059 kPa; vapor or sublimation pressure (330.15 K): 16.4 ± 0.071 kPa; vapor or sublimation pressure (335.15 K): 20.02 ± 0.08 kPa
